Laboratory results as given in publication PMC11555231 (Nature Communications, 2024).
Bridge positions count the residues as written; N and C are the ends. Square brackets hold non-standard residues; d marks the D form. Peptide text beside a SMILES is read from it.

Experiments:
[1] = system: HaLo-GFP-mito HeLa cells; assay: Chloroalkane penetration assay (CAPA); type: in vitro ADME; conditions: CAPA, chloroalkane-tagged peptide, 4 h in Opti-MEM, 37 °C, chase HaLo-Tag TMR ligand 5 µM 15 min, flow cytometry; mean ± SEM of three independent experiments
Procedure: Following the addition of chloroacetyl-NHS to the N-terminal amino group, Cys(mmt) was selectively deprotected using 1% TFA, 5% triisopropylsilane in DCM (30 min, RT). Peptides were then cyclised on resin using 2% diisopropylethylamine in DMF overnight. Following cyclisation, Lys(ivDde) was deprotected using 2% hydrazine in DMF. The resin was then washed (3 x DCM, 3 x DMF) before on-resin coupling of chloroalkane carboxylic acid was performed on the lysine side chain using Hexafluorophosphate Azabenzotriazole Tetramethyl Uronium / diisopropylethylamine in DMF for 2 h. Global deprotection and purification were then carried out as described above. Chloroalkane carboxylate was synthesised as previously described.
CAPA assays were performed following the protocol published in ref. [51]. In brief, 40,000 HaLo- GFP-mito HeLa cells were seeded in a 96-well plate. Twenty-four hours later, cells were treated with different concentrations of chloroalkane-tagged peptides (100 µM to 200 nM for PADI4_3 and PADI4_3i and 50 µM to 100 nM for PADI4_11 and PADI4_11i) for 4 h in Opti-MEM. Media containing peptides was then removed, and cells were incubated with Opti-MEM (Gibco) for 15 min. After that time, the wash was removed, and cells were chased with HaLo-Tag TMR ligand (5 µM, Promega) in Opti-MEM for 15 min. The ligand was then removed, and cells were incubated with Opti-MEM for 30 min. Cells were then trypsinised, resuspended in phosphate-buffered saline (PBS) with 0.5% FBS and analysed using a benchtop flow cytometer (MACSQuant® VYB Flow cytometer Milteny Biotec). For each well, 10000 GFP positive single cells were analysed (gating workflow shown in Supplementary Fig. 18), and TMR mean fluorescence was normalised against a positive control (cells treated with HaLo-Tag TMR ligand but no peptide) and a negative control (non-treated cells). Analysis was performed using FlowJo (LCC) software and Prism GraphPad (Dotmatics). Data were presented as the average ± standard error of three independent replicates.

[2] = system: human neutrophils; assay: Ca-ionophore stimulated neutrophils, citrullinated H3 immunostaining and confocal microscopy / immunoblot; type: cell-based; conditions: 50 µM peptide, pre-incubated 60 min, 5 µM Ca-Ionophore
Procedure: (§1) Peripheral venous blood was isolated from consenting healthy adult volunteers in heparin tubes as previously described. Briefly, blood samples were on Histopaque 1119 (Sigma-Aldrich) and then centrifuged for 20 min at 800 × g. The plasma was collected and centrifuged for a second time for 20 min at 800 × g. The neutrophil layer was collected and washed in Hyclone Hank’s Balanced Salt Solution (HBSS) -Ca, -Mg, -Phenol red (GE Healthcare) supplemented with 10 mM HEPES (Invitrogen) 0.1% FBS and further purified with a discontinuous Percoll (GE Healthcare) gradient consisting of layers with densities of 85, 80, 75, 70 and 65% and centrifuged for 20 min at 800 × g. Neutrophil-enriched layers were then collected and washed, and neutrophil purity was assessed using flow cytometry.
About 5 × 10^4 sorted neutrophils were seeded in 24-well cell culture plates containing glass coverslips in HyClone HBSS +Ca, +Mg, - Phenol red (GE Healthcare) supplemented with 10 mM HEPES (Invitrogen). Neutrophils were stimulated with 5 µM Ca-Ionophore (Sigma) and fixed for 20 min at room temperature with 2% paraformaldehyde at RT. Cells were then washed and permeabilized with 0.5% Triton X-100 in PBS. Non-specific binding was blocked with 2% BSA (Sigma) and 2% donkey serum (Sigma) in PBS. Samples were stained with DAPI (Life Technologies), the rabbit anti-CitH3 (Abcam; ab5103 1:500) and donkey anti-rabbit alexa488 (Invitrogen; A21206). Fluorescence imaging was performed on a Leica TCS SP8 inverted confocal microscope using sequential scan in between frames mode with a 20x objective.
Neutrophil samples were boiled in a sodium dodecyl sulphate (SDS) buffer containing dithiothreitol (DTT) and run on a polyacrylamide gel electrophoresis (SDS-PAGE) using Criterion TGX precast gels (Any-KD; Bio-Rad Laboratories). Proteins were then transferred to a PVDF membrane (Bio-Rad Laboratories) via semi-dry transfer. The membrane was blocked with 5% BSA (Fisher Scientific) in Tris-buffered saline with 0.1% Tween-20 (TBS-T). Levels of citrullinated histone H3, total H3 and myeloperoxidase (MPO) were assessed by incubating membranes in either anti-histone H3 citrulline R2 + R8 + R17 (Abcam; ab5103 1:1000), anti-histone H3 (Millipore; 07-690 1:10000) or anti-MPO (DAKO; A0398 1:2500) overnight at 4 °C, respectively. For cell lysate-based assays and pull-down assays, membranes were incubated as above with anti-hPADI4 (Abcam; ab50332; 1:1000 in 5% BSA/TBS-T), anti-Bcr (Cell Signalling #3902S; 1:1000 in 3% milk/TBS-T) and anti-Impdh2 (Cell Signalling #57068S; 1:1000 in 3% milk/TBS-T). Membranes were washed in 0.1% TBS-T and subsequently incubated with goat anti-rabbit HRP or anti-goat (Fisher Scientific) for 1 h, followed by final washes in 0.1% TBS-T. Membranes were imaged with enhanced chemiluminescent substrate (ECL) (Thermo Fisher) on a Bio-Rad imager.

[3] = system: human neutrophils; assay: Time-lapse imaging and NET quantification (NETosis); type: cell-based; conditions: 50 µM peptide, 5 µM Ca-Ionophore, 12 h
Procedure: as §1
About 5 × 10^4 human neutrophils were seeded in a black 96-well plate (PerkinElmer) in HyClone HBSS +Ca, +Mg, - Phenol red (GE Healthcare) containing 10 mM HEPES (Invitrogen). Cells were pre-incubated with the corresponding peptide for 60 min prior to the start of the experiment. DNA of live cells was stained with 4 µg/mL Hoechst (membrane permeable; Thermo Scientific) and DNA from dead cells with 0.2 µM Sytox-green (membrane impermeable; Invitrogen). Cells were stimulated with 100 nM PMA, 5 µM Ca-Ionophore or 0.1 mg/mL cholesterol crystals at the start of the microscope acquisition. Plates stimulated with cholesterol crystals were centrifuged at 300×g for 5 min at RT immediately prior to microscope acquisition. The cells were imaged on an inverted Nikon wide-field microscope system at 37 °C and CO2 (5%). Four fields of view were acquired per well every 15 mins for 10–15 h using a 40x objective. NETs were differentiated from necrotic cells by the size of the sytox signal using FIJI[86]. […] [85]. Area measurements were distributed into bins of increasing area sizes and plotted as a percentage of the total number of Sytox-green positive (dead) cells.

- CP50 [1]: 2.0 ± 0.8 µM
SMILES: N=C(N)NCCC[C@@H]1NC(=O)[C@H](CC(=O)O)NC(=O)[C@@H](Cc2ccc(O)cc2)NC(=O)CSC[C@@H](C(=O)NCC(N)=O)NC(=O)[C@H](Cc2ccc(O)cc2)NC(=O)[C@H](CCCCN)NC(=O)[C@@H]2CCCN2C(=O)[C@H](Cc2c[nH]cn2)NC(=O)[C@H](CCCNC(=N)N)NC(=O)[C@H](Cc2ccc(O)cc2)NC(=O)[C@H](Cc2c[nH]cn2)NC(=O)[C@H](Cc2c[nH]cn2)NC1=O [PADI4_3i] ({CH2CO}-[dY]DRHHYRHPKYCG-NH2; thioether N-12)
- H3Cit levels in neutrophils treated with calcium ionophore [2]: neither response was affected
- NETosis induced by calcium ionophore [3]: neither response was affected
